From paper PMC9911797, “Novel TLR7/8 agonists promote activation of HIV-1 latent reservoirs and human T and NK cells” (Frontiers in Microbiology, 2023)

Columns and labels:
hTLR8 = target: T1, hTLR8 (Homo sapiens, UniProt Q9NR97); experiment: HEK-Blue hTLR8 SEAP reporter assay; type: cell-based; settings: HEK-Blue hTLR8 cells, SEAP in supernatant
T1 construct: host or cells: HEK-Blue hTLR8 (HEK293-derived)
T1 sequence (Q9NR97 27-1041): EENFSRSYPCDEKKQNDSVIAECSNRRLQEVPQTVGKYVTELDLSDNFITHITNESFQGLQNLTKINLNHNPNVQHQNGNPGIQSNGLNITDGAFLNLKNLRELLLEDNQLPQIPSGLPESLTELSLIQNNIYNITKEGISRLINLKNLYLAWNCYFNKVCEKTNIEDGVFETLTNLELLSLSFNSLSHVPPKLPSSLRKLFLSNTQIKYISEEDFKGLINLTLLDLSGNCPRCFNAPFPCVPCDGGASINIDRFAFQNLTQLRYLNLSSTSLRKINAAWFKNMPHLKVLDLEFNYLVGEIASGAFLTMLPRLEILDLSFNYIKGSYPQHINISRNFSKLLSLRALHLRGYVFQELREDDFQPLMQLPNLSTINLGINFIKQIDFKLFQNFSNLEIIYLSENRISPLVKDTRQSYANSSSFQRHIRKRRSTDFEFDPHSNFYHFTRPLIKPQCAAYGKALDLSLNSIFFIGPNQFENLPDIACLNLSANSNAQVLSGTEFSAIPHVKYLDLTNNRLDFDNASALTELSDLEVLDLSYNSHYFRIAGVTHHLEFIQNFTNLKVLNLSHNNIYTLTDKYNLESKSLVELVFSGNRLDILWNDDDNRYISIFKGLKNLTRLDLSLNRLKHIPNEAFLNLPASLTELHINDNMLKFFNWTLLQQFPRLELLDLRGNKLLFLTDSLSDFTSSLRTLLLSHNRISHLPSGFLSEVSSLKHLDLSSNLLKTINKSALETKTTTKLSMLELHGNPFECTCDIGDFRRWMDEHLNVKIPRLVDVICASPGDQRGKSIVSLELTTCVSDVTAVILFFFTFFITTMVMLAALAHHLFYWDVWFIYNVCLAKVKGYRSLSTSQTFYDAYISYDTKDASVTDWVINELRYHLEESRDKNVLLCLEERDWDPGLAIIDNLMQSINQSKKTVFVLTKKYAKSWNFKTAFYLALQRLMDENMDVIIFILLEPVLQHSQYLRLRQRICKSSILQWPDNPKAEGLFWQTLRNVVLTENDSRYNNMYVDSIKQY
Description: (§1) Starting with the lead compound, 76 pyrido [3,2-d] pyrimidine derivatives were synthesized and optimized through structural modification from the deep hydrophobic region to the solvent-exposed region. Seventy-six compounds were evaluated for their in vitro activity using HEK-Blue hTLR7 or hTLR8 reporter cells, stably expressing the human TLR7 or TLR8 and an NF-κB/AP1-inducible SEAP (secreted embryonic alkaline phosphatase reporter gene).
(§2) Add 20 μl various concentrations of TLR agonists (10 dilutions) and in a 96-well plate. Then HEK-Blue hTLR7 and hTLR8 cells were suspended to 4 × 10^5 cells/ml in HEK-Blue Detection (InvivoGen) medium and added 180 μl per well. The plates were incubated at 37°C in 5% CO2 for 12 ~ 16 h. Stimulation with a hTLR7or hTLR8 ligand activates NF-κB to induce the production of secreted embryonic alkaline phosphatase (SEAP) in the culture supernatant. SEAP could be measured at OD630nm on an ELISA plate reader.

hTLR7 = target: T2, hTLR7 (Homo sapiens, UniProt Q9NYK1); experiment: HEK-Blue hTLR7 SEAP reporter assay; type: cell-based; settings: HEK-Blue hTLR7 cells, SEAP in supernatant
T2 construct: host or cells: HEK-Blue hTLR7 (HEK293-derived)
T2 sequence (Q9NYK1 27-1049): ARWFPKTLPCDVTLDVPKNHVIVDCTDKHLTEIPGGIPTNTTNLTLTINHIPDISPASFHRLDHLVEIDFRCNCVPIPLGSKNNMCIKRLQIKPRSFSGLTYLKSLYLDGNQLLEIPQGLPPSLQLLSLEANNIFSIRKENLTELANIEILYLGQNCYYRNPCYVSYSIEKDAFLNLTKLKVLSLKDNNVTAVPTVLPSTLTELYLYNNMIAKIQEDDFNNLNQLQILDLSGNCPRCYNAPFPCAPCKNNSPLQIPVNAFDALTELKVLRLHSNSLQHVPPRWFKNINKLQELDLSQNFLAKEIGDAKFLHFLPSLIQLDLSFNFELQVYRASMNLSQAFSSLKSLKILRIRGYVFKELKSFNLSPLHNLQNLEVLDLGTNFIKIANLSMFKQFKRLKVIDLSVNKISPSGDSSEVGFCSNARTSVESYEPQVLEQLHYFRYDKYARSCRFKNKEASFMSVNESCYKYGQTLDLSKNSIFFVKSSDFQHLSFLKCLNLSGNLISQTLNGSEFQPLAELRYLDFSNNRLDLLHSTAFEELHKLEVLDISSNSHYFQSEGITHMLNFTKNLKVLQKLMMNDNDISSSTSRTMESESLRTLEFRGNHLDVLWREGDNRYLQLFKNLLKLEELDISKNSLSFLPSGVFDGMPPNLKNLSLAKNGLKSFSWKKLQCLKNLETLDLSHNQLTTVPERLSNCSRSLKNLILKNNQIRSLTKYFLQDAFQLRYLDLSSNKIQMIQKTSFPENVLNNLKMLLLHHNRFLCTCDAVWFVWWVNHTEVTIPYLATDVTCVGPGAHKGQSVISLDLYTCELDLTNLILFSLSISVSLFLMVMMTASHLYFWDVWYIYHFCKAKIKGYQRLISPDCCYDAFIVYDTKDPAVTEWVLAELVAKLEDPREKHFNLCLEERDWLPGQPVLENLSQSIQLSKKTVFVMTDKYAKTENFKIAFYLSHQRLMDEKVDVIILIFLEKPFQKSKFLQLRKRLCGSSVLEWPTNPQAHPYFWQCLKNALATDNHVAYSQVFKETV
Description: as §1, §2

[1] = system: U1 monocytic cell line (latent HIV-1); experiment: HIV-1 p24 production in latently infected U1 cells (ELISA)
[2] = system: J-LAT CD4 T cell line (latent HIV-1); experiment: J-LAT activation by supernatant of agonist-stimulated healthy donor PBMCs (GFP+ cells, FACS); settings: 48 h, highest concentration 16 μM

CCCCNc1nc(N)nc2ccc(Cc3ccc(CN(C)C)cc3)nc12 [D018]
EC50 (hTLR8): 0.00646 µM | EC50 (hTLR7): 0.0402 µM | p24 production after TLR8 or MyD88 knockdown ([1]; 1 μM, TLR8- or MyD88-shRNA U1 vs sham-knockdown): essentially abolished the p24 production | EC50 ([1]; Homo sapiens, read-out: EC50 of p24 production in U1): 0.07 µM | GFP-positive J-LAT cells, PBMC supernatant [2]: most potent
